In ChEMBL document CHEMBL5338712, “Influence of chain length on the anticancer activity of the antimicrobial peptide CAMEL with fatty acid modification” (Eur J Med Chem, 2022):
In brackets after ≈: the same amount, converted by molar mass. One block for each molecule: values may come before it. Activity calls are given as the source filed them. The rule behind the calls is not given here. Where a SMILES comes first, the peptide text is derived from it. The star is where a group is joined. Palmitoyl = CCCCCCCCCCCCCCCC(=O)*; Octanoyl = CCCCCCCC(=O)*; Cbz = O=C(OCc1ccccc1)*; CH2F = FC*

How the values were obtained:
B16-F10 [1] = test: Induction of mitochondrial membrane potential loss in mouse B16-F10 cells assessed as decrease in fluorescence intensity at 10 uM measured at 0.5 to 4 hrs by flow cytometry analysis; assay type: functional, cell-based; details: time 0.5-4 hrs
B16-F10 [2] = test: Membrano-lytic activity in mouse B16-F10 cell membrane at 1.25 to 20 uM measured after 1 hr by LDH leakage assay; assay type: cell-based; details: dose 1.25-20 µM
B16-F10 [3] = test: Induction of mitochondrial membrane potential loss in mouse B16-F10 cells at 10 uM by flow cytometry analysis; assay type: functional, cell-based; details: time 0.5-4 hrs, TDE = time-dependent effect
B16-F10 [4] = test: Membrano-lytic activity in mouse B16-F10 cell membrane at 20 uM by LDH leakage assay; assay type: cell-based; details: time 0.5-4 hrs, TDE = time-dependent effect
[5] = Self-assembly behavior of compound in saline solution assessed as critical micelle concentration by spectrophotometer analysis; assay type: physicochemical; details: buffer
B16-F10 [6] = test: Antitumor activity against mouse B16-F10 cells implanted in intratumorally dosed C57BL/6 mouse assessed as reduction in tumor volume administered for 3 days by vernier caliper method; assay type: functional, organism-based; details: time 3.0 day
B16-F10 [7] = test: Induction of apoptosis in mouse B16-F10 cells assessed as decrease in ATP level; assay type: functional, cell-based
B16-F10 [8] = test: Induction of cell membrane disruption in mouse B16-F10 cells at 20 uM measured for 30 mins by PI staining based microplate reader assay
B16-F10 [9] = test: Induction of ROS production in mouse B16-F10 cells at 10 uM measured for 0.5 to 4 hrs by MitoSOX red dye based microplate reader analysis; assay type: functional, cell-based; details: time 0.5-4 hrs
B16-F10 [10] = test: Cytotoxicity against mouse B16-F10 cells assessed as reduction in cell viability at 1.25 to 20 uM measured after 72 hrs by MTT assay; assay type: functional, cell-based; details: dose 1.25-20 µM
B16-F10 [11] = test: Induction of necrotic cell death in mouse B16-F10 at 10 uM measured after 1 to 24 hrs; assay type: functional, cell-based; details: time 1-24 hrs
B16-F10 [12] = test: Induction of cell cycle arrest in mouse B16-F10 cells assessed as accumulation at G0/G1 phase at 10 uM and measured after 24 hrs PI staining based by flow cytometry; assay type: functional
B16-F10 [13] = test: Induction of apoptosis in mouse B16-F10 cells assessed as activation of caspase-3 incubated for 24 hrs by microplate reader analysis; assay type: functional, cell-based
trypsin = trypsin (Homo sapiens, UniProt P07477+P07478+P35030); test: Stability of compound assessed as trypsin (unknown origin)-mediated compound degradation measured upto 6 hrs by RP-HPLC analysis; assay type: ADME, protein assay; details: trypsin (enzyme solution), read-out: Drug degradation
B16-F10 [14] = test: Induction of necroptosis in mouse B16-F10 cells assessed as cell death at 5 to 20 uM measured for 4 to 24 hrs in presence of Nec-1; assay type: functional, cell-based; details: dose 5-20 µM, time 4-24 hrs
[15] = Toxicity in C57BL/6 […] mouse implanted with mouse B16-F10 cells assessed as animal death administered intratumorally; assay type: cell-based; details: in vivo, other, route it(Intratumoral)
B16-F10 [16] = test: Cytotoxicity against mouse B16-F10 cells assessed as reduction in cell viability at 1.25 to 20 uM measured after 24 hrs by MTT assay; assay type: functional, cell-based; details: dose 1.25-20 µM
B16-F10 [17] = test: Cytotoxicity against mouse B16-F10 cells assessed as induction of cell death measured for 4 to 24 hrs by MTT assay; assay type: functional, cell-based; details: time 4-24 hrs
B16-F10 [18] = test: Cytotoxicity against mouse B16-F10 cells assessed as reduction in cell viability at 1.25 to 20 uM by MTT assay; assay type: functional, cell-based; details: dose 1.25-20 µM, time 1-72 hrs, TDE = time-dependent effect
B16-F10 [19] = test: Disruption of membrane integrity in mouse B16-F10 cells at 10 uM measured at 4 to 24 hrs by propidium iodide staining based laser scanning microscopic analysis; assay type: cell-based; details: time 4-24 hrs
B16-F10 [20] = test: Induction of ROS production in mouse B16-F10 cells at 10 uM measured for 0.5 to 4 hrs by DCFH-DA dye based microplate reader analysis; assay type: functional, cell-based; details: time 0.5-4 hrs
B16-F10 [21] = test: Induction of morphological changes in mouse B16-F10 cells assessed as cell bursting at 20 uM incubated for 30 mins by microscopic analysis; assay type: functional, cell-based
B16-F10 [22] = test: Induction of morphological changes in mouse B16-F10 cells assessed as cell swelling at 20 uM incubated for 30 mins by microscopic analysis; assay type: functional, cell-based
B16-F10 [23] = test: Induction of morphological changes in mouse B16-F10 cells assessed as cell rounding at 20 uM incubated for 30 mins by microscopic analysis; assay type: functional, cell-based
B16-F10 [24] = test: Cytotoxicity against mouse B16-F10 cells assessed as reduction in cell viability measured after 1 hrs by MTT assay; assay type: functional, cell-based; details: dose 1.25-20 µM
B16-F10 [25] = test: Antiproliferative activity against mouse B16-F10 cells assessed as inhibition of cell viability by measuring ATP level at 10 uM measured for 4 to 24 hrs; assay type: functional, cell-based; details: time 4-24 hrs
Staphylococcus aureus = test: Antibacterial activity against Staphylococcus aureus ATCC […] assessed as reduction in bacterial growth measured for 18 hrs by serial dilution method; assay type: functional
Escherichia coli = test: Antibacterial activity against Escherichia coli ATCC 25922 assessed as reduction in bacterial growth measured for 18 hrs by serial dilution method; assay type: functional
B16-F10 [26] = test: Induction of necroptosis in mouse B16-F10 cells assessed as increase in ROS level; assay type: functional, cell-based
B16-F10 [27] = test: Membrano-lytic activity in mouse B16-F10 cell membrane measured after 1 hr by LDH leakage assay; assay type: cell-based; details: dose 1.25-20 µM
B16-F10 [28] = test: Membrano-lytic activity in mouse B16-F10 cell membrane at 20 uM measured at 0.5 to 4 hrs by LDH leakage assay; assay type: cell-based; details: time 0.5-4 hrs
B16-F10 [29] = test: Induction of mitochondrial membrane potential loss in mouse B16-F10 cells assessed as decrease in fluorescence intensity at 10 uM measured at 4 hrs by flow cytometry analysis; assay type: functional, cell-based
B16-F10 [30] = test: Membrano-lytic activity in mouse B16-F10 cell membrane at 20 uM measured after 0.5 hr by LDH leakage assay; assay type: cell-based
B16-F10 [31] = test: Membrano-lytic activity in mouse B16-F10 cell membrane at 1.25 to 20 uM measured after 4 hr by LDH leakage assay; assay type: cell-based; details: dose 1.25-20 µM
B16-F10 [32] = test: Induction of cell membrane disruption in mouse B16-F10 cells at 20 uM by PI staining based microplate reader assay; details: time 30.0 min, TDE = time-dependent effect
B16-F10 [33] = test: Disruption of membrane integrity in mouse B16-F10 cells at 10 uM measured after 1 hr by propidium iodide staining based laser scanning microscopic analysis; assay type: cell-based

Molecule: CCCCCCCCCCCCCCCC(=O)N[C@@H](CCCCN)C(=O)N[C@@H](Cc1c[nH]c2ccccc12)C(=O)N[C@@H](CCCCN)C(=O)N[C@@H](CC(C)C)C(=O)N[C@@H](Cc1ccccc1)C(=O)N[C@@H](CCCCN)C(=O)N[C@@H](CCCCN)C(=O)N[C@H](C(=O)NCC(=O)N[C@@H](C)C(=O)N[C@H](C(=O)N[C@@H](CC(C)C)C(=O)N[C@@H](CCCCN)C(=O)N[C@H](C(=O)N[C@@H](CC(C)C)C(N)=O)C(C)C)C(C)C)[C@@H](C)CC (Palmitoyl-KWKLFKKIGAVLKVL-NH2)
- Activity (B16-F10 [1]): Active
- Activity (B16-F10 [2]): Active
- Activity (B16-F10 [3]): Tde
- Activity (B16-F10 [4]): Tde
- CMC [5]: 4.95 µM
- Activity (B16-F10 [6]): Active
- Activity (B16-F10 [7]): inactive
- Activity (B16-F10 [8]): Active
- Activity (B16-F10 [9]): Active
- Activity (B16-F10 [10]): Active
- Activity (B16-F10 [11]): Active
- Activity (B16-F10 [12]): inactive
- Activity (B16-F10 [13]): inactive
- metabolised at 6 h (trypsin): 8.7%
- Activity (B16-F10 [14]): Active
- Activity [15]: Non-Toxic
- Activity (B16-F10 [16]): Active
- Activity (B16-F10 [17]): inactive
- Activity (B16-F10 [18]): Tde
- Activity (B16-F10 [19]): Active
- Activity (B16-F10 [20]): Active
- Activity (B16-F10 [21]): Active
- Activity (B16-F10 [22]): Active
- Activity (B16-F10 [23]): Active
- Activity (B16-F10 [24]): Dose-Dependent Effect
- Activity (B16-F10 [25]): Active
- MIC (Staphylococcus aureus): > 128 µM
- MIC (Escherichia coli): > 128 µM
- Activity (B16-F10 [26]): Active
- Activity (B16-F10 [27]): Dose-Dependent Effect

Molecule: H-KWKLFKKIGAVLKVL-NH2
- Activity (B16-F10 [1]): Active
- Activity (B16-F10 [28]): inactive
- Activity (B16-F10 [6]): Active
- Activity (B16-F10 [7]): inactive
- Activity (B16-F10 [8]): Active
- Activity (B16-F10 [9]): Active
- Activity (B16-F10 [11]): Active
- Activity (B16-F10 [12]): inactive
- Activity (B16-F10 [13]): inactive
- Activity (B16-F10 [29]): inactive
- Activity (B16-F10 [30]): Active
- metabolised at 6 h (trypsin): 100%
- Activity (B16-F10 [31]): Active
- Activity (B16-F10 [14]): Active
- Activity [15]: Non-Toxic
- Activity (B16-F10 [16]): Active
- Activity (B16-F10 [17]): inactive
- Activity (B16-F10 [32]): Tde
- Activity (B16-F10 [20]): Active
- Activity (B16-F10 [21]): Active
- Activity (B16-F10 [22]): Active
- Activity (B16-F10 [23]): Active
- Activity (B16-F10 [24]): Dose-Dependent Effect
- Activity (B16-F10 [25]): Active
- MIC (Staphylococcus aureus): 4 µM
- MIC (Escherichia coli): 32 µM
- Activity (B16-F10 [26]): Active
- Activity (B16-F10 [27]): Dose-Dependent Effect
- Activity (B16-F10 [33]): Active

- metabolised at 6 h (trypsin): 70.2%
- MIC (Staphylococcus aureus): 4 µM (≈ 7.59 µg/mL)
- MIC (Escherichia coli): 8 µM (≈ 15.2 µg/mL)
Molecule: CCCCCCCC(=O)N[C@@H](CCCCN)C(=O)N[C@@H](Cc1c[nH]c2ccccc12)C(=O)N[C@@H](CCCCN)C(=O)N[C@@H](CC(C)C)C(=O)N[C@@H](Cc1ccccc1)C(=O)N[C@@H](CCCCN)C(=O)N[C@@H](CCCCN)C(=O)N[C@H](C(=O)NCC(=O)N[C@@H](C)C(=O)N[C@H](C(=O)N[C@@H](CC(C)C)C(=O)N[C@@H](CCCCN)C(=O)N[C@H](C(=O)N[C@@H](CC(C)C)C(N)=O)C(C)C)C(C)C)[C@@H](C)CC (Octanoyl-KWKLFKKIGAVLKVL-NH2)
- Activity (B16-F10 [2]): Active
- Activity (B16-F10 [16]): Active
- Activity (B16-F10 [24]): Dose-Dependent Effect
- Activity (B16-F10 [27]): Dose-Dependent Effect

Molecule: COC(=O)C[C@H](NC(=O)[C@H](C)NC(=O)[C@@H](NC(=O)OCc1ccccc1)C(C)C)C(=O)CF (Cbz-Val-Ala-Asp(OMe)-CH2F)
- Activity (B16-F10 [17]): Active
